Converted amounts (≈) assume the structure as drawn. Read-outs that look alike come from different tables or passages of the source.
Legend:
[1] = Experimental: In the experiment, the initial dosage of crystal form A of the hydrochloride salt in H2O, SGF, and FaSSIF was about 20 mg/mL, and the initial dosage in FeSSIF was about 40 mg/mL. […] The samples were sealed and mounted on a rotating disk rotating at 25 rpm, and the rotating disk was placed in a 37° C. incubator. Samples were taken at time points 1, 4 and 24 hours of equilibration, and the filtrate was separated and tested concentration by HPLC.
[2] = 24 hours
Experimental: The crystal form A of the hydrochloride salt of the compound of formula Ic-1 was tested for equilibrium solubility in water for 24 hours at room temperature. The form A was dosed with about 300 mg/mL solid feed, and magnetic stirred (750 rpm) in water for 24 hours to obtain a suspension. After centrifugation, the supernatant was filtered through a 0.22-μm PTFE membrane and then tested by HPLC, and the obtained solid was tested by XRPD.

[3] = Hygroscopicity test by dynamic moisture absorption (DVS); type: physicochemical
Experimental: Dynamic moisture adsorption (DVS) analysis: the instrument is a DVS Intrinsic produced by SMS company (Surface Measurement Systems); temperature, 25° C.; carrier gas, flow rate: nitrogen, 200 ml/min; mass change per unit time: 0.002%/min: relative humidity range: 0/oRH-95% RH.
Dynamic moisture absorption (DVS) was used to test their hygroscopicity.

Compound: CNCC[C@@H](Oc1cccc2ccoc12)c1cccs1 [Form A]
- solubility ([1]; FaSSIF pH 6.5, 37° C., 1 hour): 20.2 mg/mL (≈ 70.3 mM)
- solubility ([1]; FaSSIF pH 6.5, 37° C., 4 hours): 20.7 mg/mL (≈ 72 mM)
- solubility ([1]; FaSSIF pH 6.5, 37° C., 24 hours): 20.8 mg/mL (≈ 72.4 mM)
- solubility ([1]; FeSSIF pH 5.0, 37° C., 1 hour): 32.8 mg/mL (≈ 114 mM)
- solubility ([1]; FeSSIF pH 5.0, 37° C., 4 hours): 36.8 mg/mL (≈ 128 mM)
- solubility ([1]; FeSSIF pH 5.0, 37° C., 24 hours): 39.4 mg/mL (≈ 137 mM)
- solubility ([1]; SGF pH 1.9, 37° C., 1 hour): 16.5 mg/mL (≈ 57.4 mM)
- solubility ([1]; SGF pH 1.9, 37° C., 4 hours): 14.8 mg/mL (≈ 51.5 mM)
- solubility ([1]; SGF pH 1.9, 37° C., 24 hours): 11.1 mg/mL (≈ 38.6 mM)
- solubility ([1]; Water, 37° C., 1 hour): 16.7 mg/mL (≈ 58.1 mM)
- solubility ([1]; Water, 37° C., 4 hours): 17.7 mg/mL (≈ 61.6 mM)
- solubility ([1]; Water, 37° C., 24 hours): 17.3 mg/mL (≈ 60.2 mM)
- solubility in water (concentration of free state) ([2]; room temperature): 21 ± 0.5 mg/mL
- solubility in water converted to hydrochloride concentration ([2]; room temperature): 237.3 mg/mL (≈ 826 mM)
- solid crystal form after the equilibrium solubility test (XRPD) ([2]; water): solid crystal form did not change
- change in crystal form (XRPD) before and after the DVS test [3]: no change in crystal form was observed

From patent US12492195B2, “Preparation method for and crystal form of 3-aryloxy-3-five-membered heteroaryl-propylamine compound” (Zhangzhou Pien Tze Huang Pharmaceutical Co., Ltd., priority 2020, dated 2025)
